Here are results for five compounds from patent publication US20170184612A1, “USE OF LEUKOCYTES AND NOVEL BIOMARKERS IN THE DIAGNOSIS, CONFIRMATION, AND TREATMENT OF A NEUROLOGICAL DISORDER” (The Trustees of Columbia University in the City of New York, priority 2014, published 2017).

Where a SMILES comes first, the peptide text is derived from it. The star is where a group is joined. Cbz = O=C(OCc1ccccc1)*; CH2F = FC*

The subject of experiment [1] is peripheral blood mononuclear cells (PBMC), T cells. Put plainly: ELISpot assay, IL-5 release (SFC) after stimulation with a-synuclein epitope pools. Particulars: for IL-g Peptide + (donors positive to the peptide): of donors tested (peptide); for IL-g Peptide +: number of donors positive to the single peptide. It counts as cell-based, human. The gist of the method: (§1)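 Ficoll-isolated PBMC, PD vs age-matched controls, blinded; peptide pools (122 candidates + pS129 epitopes), 22 h, 37 C. Positive pools deconvoluted.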

Experiment [2] has the same test system. Put plainly: ELISpot assay, gamma-interferon release (SFC) after stimulation with a-synuclein epitope pools. It counts as cell-based, human. Particulars: for IFNg Peptide + (donors positive to the peptide): of donors tested (peptide); for IFNg Peptide +: number of donors positive to the single peptide. Put shortly: as §1
Experiment [3] has the same test system. Put plainly: ELISpot assay, IFNg and IL-5 reactivity combined, T cell response to α-syn epitopes. The format is cell-based, human. Particulars: flag 1/0 per peptide. The procedure: Blood from age matched controls and PD patients were obtained and mononuclear cells were isolated by gradient centrifugation.
Release of the cytokines gamma-interferon, which measures activation of CD4+ and/or CD8+ T cells, and the interleukin, IL-5, which measures activation of CD4+ T cells was measured by ELISpot assay. […] After 22 hours of stimulation at 37 C, the cells were removed and release of cytokines was measured by colorimetric detection of spot-forming cells (SFC). Confirmed release of cytokine is determined by the presence of a minimum of 20 SFC per million cells.
The binding algorithms in SubAim 1 predict how well the peptides would bind to MHC if present, but not if they are present in patients. To determine this, the presence of T cell response against the candidate antigens by patient blood-derived peripheral blood mononuclear cells (PBMC) is assessed by ELISPOT assays upon stimulation with the peptides. This assay detects and quantifies cytokine release (in this case, IFNγ and IL-5) from specific activated T cells.
Data were obtained from blood samples (25 ml) from 44 PD patients and 24 age-matched controls. The experiments were conducted blindly. PBMCs from these samples were isolated and exposed to pools comprising the 122 candidate class I and class II antigens and phosphorylated S129 epitopes generated in Subaim 1. For the PBMCs responsive to the pooled peptides, the response was then deconvoluted to identify individual epitopes.
PMBC fractions are recovered by standard methods with Ficoll gradient and T cells expansion (Oseroff et al., 2010). The methods for the analysis of T cell reactions and measurement of cytokines production using the enzyme-linked immunosorbent spot (ELISPOT) assay are published in analogous experiments to discover antigens in multiple sclerosis (Lolli et al., 2013) and in hay fever allergens (Oseroff et al., 2010). T cell responses are determined by measuring IFNγ and IL-5 release by ELISPOT. Statistical analysis of differences between populations is expected to be non-parametric and analyzed with the U-Mann-Whitney test. If there were a normal distribution of response, which is a priori unlikely as some patients have no T cell response, with an SD=1, 8 patients per group would be required to provide a p>90% that the study detect a >2 fold difference at a two-sided 0.05 significance level.

The subject of another experiment is VM DA (TH+) neurons. Put plainly: OT-1 T cell cytotoxicity (killing) assay on VM DA neurons. It counts as cell-based, mouse. Particulars: neurons with IFN-γ, SIINFEKL and OT-1 cells. On the procedure: OT-1 CD8^+ cell proliferation was assessed by BrdU incorporation. For OT-1 T cell cytotoxicity assays, DC and VM (from C57BL/6 and 56.129P2-B2mtm1Unc/J mice) cell cultures were incubated with neuronal medium or neuronal medium containing 100 ng/ml of IFN-γ (R&D Systems). Neurons were loaded with or without […] (SEQ ID NO: 9) peptide (1 μM), and, subsequently in vitro activated OT-1 cells were added at a density of 100,000 cells/well and co-incubated for 24 h.
We used the same conditions for VM cell cultures with microglial medium previously stimulated with LPS, NM or α-syn instead of IFN-γ. Neurons were pre-incubated with IFN-γ and […] (SEQ ID NO: 9) peptide as above, and then with: 1) a pan-caspase general inhibitor (Z-VAD-FMK, 20 μM, 24h, IMGENEX); 2) a specific granzyme/perforin inhibitor (concanamycin A, 100 nM, 24h, Sigma Aldrich); 3) a specific Fas/FasL antagonist (Kp7-6, 1 mM, 24h, EMD Biosciences) and 4) concanamycin A and Kp7-6 together. OT-1 cells were then added to the culture (100,000 cells/well) and maintained for 24 h.
Following immunocytochemical staining of VM neurons, we assessed the proportion of surviving DA (TH^+) and non-DA cells (MAP-2^+, TH^−). Total numbers of TH^+ and MAP-2^+ neurons were counted in 24 fields surrounding the border of the well at 20× magnification. The number of surviving TH+ neurons with an intact soma and two or more neurites equal to or greater than the diameter of the cell soma was counted and normalized to the number in untreated cultures.

Where [4] appears, read: Patients Summary, PD patients, single peptide.
The mark [5] stands for this setting: second 'Pool Stimulated' section (from r296), 12 donors tested.
Setting [6] is: peptide + / donors tested (peptide), second 'Pool Stimulated' section (from r296), 12 donors tested.
The mark [7] stands for this setting: single peptide, second 'Pool Stimulated' section (from r296), 12 donors tested.

On to “3521.0053 (KAKEGVVAAA; listed as Homo sapiens)”, for which, in experiment [1] (Patients Summary, PD patients), the “IL-g Peptide + (donors positive to the peptide)” value is recorded as 0. The “IL-g Response Frequency” value in experiment [1] (setting [4]) and in experiment [1] (setting [6]) was 0% each time. In addition, the “IL-g Total SFC” value in experiment [1] (setting [4]) and in experiment [1] (setting [7]) was 0 SFC in each case. The “IL-g Peptide +” value in experiment [1] (setting [5]) is 0. Further, the “IFNg Peptide + (donors positive to the peptide)” value in experiment [2] (Patients Summary, PD patients) was 0. Also, the “IFNg Response Frequency” value in experiment [2] (setting [4]) and in experiment [2] (setting [6]) was 0% throughout. In addition, the “IFNg Total SFC” value in experiment [2] (setting [4]) and in experiment [2] (setting [7]) was 0 SFC in each case. Also, the “IFNg Peptide +” value in experiment [2] (setting [5]) is reported as 0. Moreover, the “Peptides + in Patients & Normals” value in experiment [3] came to 0.
With “3521.0066 (KAKEGVVAA; listed as Homo sapiens)”, in experiment [1] (Patients Summary, PD patients), the “IL-g Peptide + (donors positive to the peptide)” value was determined as 0. Moreover, the “IL-g Response Frequency” value in experiment [1] (setting [4]) and in experiment [1] (setting [6]) was 0% throughout. Also, the “IL-g Total SFC” value in experiment [1] (setting [4]) and in experiment [1] (setting [7]) was 0 SFC in each case. The “IL-g Peptide +” value in experiment [1] (setting [5]) is 0. In addition, in experiment [2] (Patients Summary, PD patients), the “IFNg Peptide + (donors positive to the peptide)” value is listed as 0. Also, the “IFNg Response Frequency” value in experiment [2] (setting [4]) and in experiment [2] (setting [6]) was 0% in each case. For the same compound, the “IFNg Total SFC” value in experiment [2] (setting [4]) and in experiment [2] (setting [7]) was 0 SFC in each case. For the same compound, in experiment [2] (setting [5]), the “IFNg Peptide +” value stood at 0. The “Peptides + in Patients & Normals” value in experiment [3] was determined as 0.
In the case of “3521.0074 (VAAAEKTKQGVAEAP; listed as Homo sapiens)”, the “IL-g Peptide + (donors positive to the peptide)” value in experiment [1] (Patients Summary, PD patients) was found to be 0. Moreover, the “IL-g Response Frequency” value in experiment [1] (setting [4]) and in experiment [1] (setting [6]) was 0% throughout. The “IL-g Total SFC” value in experiment [1] (setting [4]) and in experiment [1] (setting [7]) was 0 SFC throughout. In experiment [1] (setting [5]), the “IL-g Peptide +” value was determined as 0. The “IFNg Peptide + (donors positive to the peptide)” value in experiment [2] (Patients Summary, PD patients) was 1. Besides, the “IFNg Avg SFC” value in experiment [2] (setting [4]) is recorded as 67 SFC. For the same compound, the “IFNg Response Frequency” value in experiment [2] (setting [4]) was found to be 33%; in experiment [2] (setting [6]), 0%. Also, the “IFNg Total SFC” value stood at 67 SFC in experiment [2] (setting [4]) and 0 SFC in experiment [2] (setting [7]). Also, the “IFNg Peptide +” value in experiment [2] (setting [5]) amounted to 0. The “Peptides + in Patients & Normals” value in experiment [3] came to 0.
As to `COC(=O)C[C@H](NC(=O)[C@H](C)NC(=O)[C@@H](NC(=O)OCc1ccccc1)C(C)C)C(=O)CF` [Z-VAD-FMK] (Cbz-Val-Ala-Asp(OMe)-CH2F), the “effect on CTL mediated neuronal death” value in the experiment on VM DA (TH+) neurons is recorded as “protect against CTL mediated neuronal death”.
The same measure, in the same setting: as for `C/C=C/[C@H]1O[C@@](O)([C@@H](C)[C@H](O)[C@H](C)[C@H]2OC(=O)/C(OC)=C/C(C)=C/[C@@H](C)[C@@H](O)[C@@H](CC)[C@@H](O)[C@H](C)C/C(C)=C/C=C/[C@@H]2OC)C[C@@H](O[C@H]2C[C@@H](O)[C@H](OC(N)=O)[C@@H](C)O2)[C@@H]1C` [concanamycin A], the entry is “protect against CTL mediated neuronal death”.
